Experimental data reported in US6764829B2, “Nucleoside hydrolase and nucleoside phosphorylase detection kits, dipsticks and substrates” (Albert Einstein College of Medicine of Yeshiva University, priority 1996, dated 2004).
Read-outs that look alike come from different tables or passages of the source.

Key:
IU-nucleoside hydrolase = biological target: T1, IU-nucleoside hydrolase (Crithidia fasciculata, UniProt Q27546); experiment: Comparison of β-D-ribofuranoside substrates with IU-nucleoside hydrolase (Table 3); format: biochemical; conditions: for Km: read-out: IU NH Km
T1 sequence (Q27546 1-315): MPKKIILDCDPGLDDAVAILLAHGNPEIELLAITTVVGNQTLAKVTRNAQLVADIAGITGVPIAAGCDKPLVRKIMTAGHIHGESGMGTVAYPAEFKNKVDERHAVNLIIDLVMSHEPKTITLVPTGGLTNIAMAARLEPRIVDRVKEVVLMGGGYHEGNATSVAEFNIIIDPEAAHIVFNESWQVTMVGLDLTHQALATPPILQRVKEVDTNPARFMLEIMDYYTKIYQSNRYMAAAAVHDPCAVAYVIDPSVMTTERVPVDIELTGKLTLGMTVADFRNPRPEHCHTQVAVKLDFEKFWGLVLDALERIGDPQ
Experimental: (§1) The enzymes used were highly purified samples from Crithidia fasciculata (IU-nucleoside hydrolase) and Trypanosoma brucei brucei (IAG-nucleoside hydrolase), available as stock solutions of approximately 20 mg protein/mL.
(§2) Each reaction was conducted in a quartz cuvette with a 1 cm path length, placed in the observation chamber of a UV spectrophotometer, and in a total reaction volume of 600 μL. The temperature was adjusted by use of a circulating water bath, set so that the cuvette temperature equilibrated to 30° C. in about 5 minutes.
(§3) The β-D-ribofuranoside substrates were dissolved in aqueous buffer: 50 mM CHES for reactions at pH 10, 50 mM HEPES for reactions at pH 8. […] For the remaining reactions catalysed by IAG hydrolase, a single substrate concentration of between 100 and 300 μM was used.
(§4) The absorbance of each reaction mixture was monitored at or near the absorption maximum for the phenolic aglycon (as shown in Table 3). Monitoring began 5-10 minutes before the enzyme was added to determine if the substrate was stable under the reaction conditions.
(§5) Data were fitted to the Michaelis-Menton equation using kaleidagraph, and the resulting kinetic parameters along with other relevant data are summarized in Table 3.

IAG-nucleoside hydrolase = biological target: T2, IAG-nucleoside hydrolase (Trypanosoma brucei, UniProt Q57ZL6); experiment: Comparison of β-D-ribofuranoside substrates with IAG-nucleoside hydrolase (Table 3); format: biochemical; conditions: for IAG NH rate: at 200 μM substrate
T2 sequence (Q57ZL6 1-327): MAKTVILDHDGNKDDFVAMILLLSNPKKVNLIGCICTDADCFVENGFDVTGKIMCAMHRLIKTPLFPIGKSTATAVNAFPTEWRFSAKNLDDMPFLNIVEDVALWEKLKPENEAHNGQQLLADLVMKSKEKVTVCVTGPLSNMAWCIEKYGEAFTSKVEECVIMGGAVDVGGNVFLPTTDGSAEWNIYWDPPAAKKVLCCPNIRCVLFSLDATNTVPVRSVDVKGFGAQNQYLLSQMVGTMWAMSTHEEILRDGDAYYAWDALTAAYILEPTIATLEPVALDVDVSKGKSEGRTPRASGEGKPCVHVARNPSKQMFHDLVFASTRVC
Experimental: as §1, §2, §3, §4, §5

[1] = system: Giardia intestinalis (Portland 1 strain); experiment: Hydrolysis of substrates by Giardia intestinalis supernatants; format: biochemical; conditions: 0.24 mM substrate, 50 mM HEPES pH 8
Experimental: Giardia intestinalis (Portland 1 strain) was grown for 2 days in TYI-33 medium supplemented with 5 mM arginine, harvested and washed. A suspension containing 2.91×10^8 cells of Giardia intestinalis in 1 mL of aqueous HEPES buffer (40 mM. pH 7) was mixed with 1 mL of aqueous HEPES buffer (40 mM, pH 7) containing 0.1 mM protease inhibitor E-64 and sonicated (Branson sonicator, duty cycle 40, output 2.5), for 2-3 min in ice. The suspension was then centrifuged in a Beckman microfuge for 10 mins at 4° C., and the supernatant decanted.
A second suspension of 2.91×10^8 cells of Giardia intestinalis in 1 mL of aqueous HEPES buffer (40 mM, pH 7) was mixed with 1 mL of 0.5% aqueous Triton X-100, left at 4° C. overnight, and the supernatant was decanted.
Aliquots (between 2 and 100 μL) of each of these supernatants were made up to a volume of 1 mL of water containing 50 mM HEPES buffer at pH 8, 0.24 mM 4-nitrophenyl β-D-ribofuranoside or 4-pyridyl β-D-ribofuranoside. The release of the aglycon was monitored by absorption spectrometry at 400 nm or 253 nm, respectively.
Protein was determined by Lowry method (ie Folin reaction).

T. vaginalis = experiment: Hydrolysis of substrates by T. vaginalis extract; format: biochemical; conditions: Triton X-100 extract; determined as in Example 24
Experimental: T. vaginalis was grown for 2 days in TYM medium, harvested, and washed. […] The ability of the extract to hydrolyse substrates was determined as in Example 24. For 4-nitrophenyl β-D-ribofuranoside, the activity was 165 nmoles.min^−1 per 10^8 cells, corresponding to an activity for the enzyme of 9 nmoles.min^−1.(mg protein)^−1. For 4-pyridyl β-D-ribofuranoside, the activity was 74 nmoles.min^−1 per […] corresponding to an activity for the enzyme of 4 nmoles.min^−1.(mg protein)^−1.

AMP nucleosidase = AMP nucleosidase (Escherichia coli, UniProt P0AE12); experiment: Kinetic parameters with nitrophenylriboside 5-phosphate and purine substrate (Table 1); format: biochemical, E coli
Chain of AMP nucleosidase (P0AE12 whole entry): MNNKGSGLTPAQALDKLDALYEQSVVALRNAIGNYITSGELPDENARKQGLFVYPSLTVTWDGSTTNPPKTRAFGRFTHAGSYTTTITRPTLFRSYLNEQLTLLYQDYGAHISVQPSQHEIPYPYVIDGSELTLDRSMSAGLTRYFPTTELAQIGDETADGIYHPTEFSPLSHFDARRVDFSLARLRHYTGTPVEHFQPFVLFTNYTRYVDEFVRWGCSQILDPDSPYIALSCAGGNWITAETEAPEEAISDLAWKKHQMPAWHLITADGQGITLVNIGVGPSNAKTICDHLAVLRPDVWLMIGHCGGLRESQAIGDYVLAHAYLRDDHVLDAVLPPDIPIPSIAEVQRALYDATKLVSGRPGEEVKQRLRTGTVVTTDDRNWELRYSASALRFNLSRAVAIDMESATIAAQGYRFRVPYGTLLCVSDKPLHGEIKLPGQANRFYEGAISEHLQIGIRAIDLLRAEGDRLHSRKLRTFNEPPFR
Description: (§6) In this Example kinetic parameters for different enzymes were compared using nitrophenylriboside or a purine substrate. […] The E. coli and bovine spleen enzymes tested were ineffective in hydrolysing the substrate. The striking ability of one of the protozoan parasite enzymes to hydrolyse the substrate provides the basis for an assay for the protozoan parasites (see Example 22).

[2] = substrate: O=[N+]([O-])c1ccc(O[C@@H]2O[C@H](CO)[C@@H](O)[C@H]2O)cc1; experiment: Kinetic parameters (phosphorolysis) with nitrophenylriboside and purine substrate (Table 1); format: biochemical, bovine; conditions: other: nitrophenylriboside as substrate, pH 8.0 in 50 mM HEPES, 30° C., 3 mM phosphate
Description: as §6

[3] = substrate: O=[N+]([O-])c1ccc(O[C@@H]2O[C@H](CO)[C@@H](O)[C@H]2O)cc1; experiment: Kinetic parameters with nitrophenylriboside and purine substrate (Table 1); format: biochemical, Trypanosoma brucei brucei; conditions: other: nitrophenylriboside as substrate, pH 8.0 in 50 mM HEPES, 30° C.
Description: as §6

[4] = substrate: O=[N+]([O-])c1ccc(O[C@@H]2O[C@H](CO)[C@@H](O)[C@H]2O)cc1; experiment: Comparison of β-D-ribofuranoside substrates with IAG-nucleoside hydrolase (Table 3); format: biochemical, Trypanosoma brucei brucei; conditions: other: At pH 10, 30.0 °C
Experimental: as §1, §2, §3, §4, §5

[5] = substrate: OC[C@H]1O[C@@H](Oc2ccncc2)[C@H](O)[C@@H]1O; experiment: as above; format: biochemical, Trypanosoma brucei brucei; conditions: other: At pH 10, 30.0 °C
Experimental: as §1, §2, §3, §4, §5

[6] = nitrophenylriboside 5-phosphate as substrate, pH 8.0 in 50 mM HEPES, 30° C., MgATP 100 μM

β-D-ribofuranoside of Luminol [Example 15]
IU NH kcat (IU-nucleoside hydrolase; At pH 10, 30° C.): 163 s⁻¹
Km (IU-nucleoside hydrolase; At pH 10, 30° C.): 133 µM
IAG NH rate (IAG-nucleoside hydrolase; pH 8.0): <0.01 min⁻¹
IAG NH rate (IAG-nucleoside hydrolase; pH 10.0): <0.03 min⁻¹

O=Cc1ccc(O[C@@H]2O[C@H](CO)[C@@H](O)[C@H]2O)cc1 [Example 20, 4-formylphenyl β-D-ribofuranoside]
IAG NH rate (IAG-nucleoside hydrolase; pH 10.0): 0.01 min⁻¹

Nc1cccc(O[C@@H]2O[C@H](CO)[C@@H](O)[C@H]2O)c1 [Example 4, 3-aminophenyl β-D-ribofuranoside]
Ki (IU-nucleoside hydrolase): 72 µM
IU NH kcat (IU-nucleoside hydrolase; At pH 10, at 1240 μM): 0.7 s⁻¹
IAG NH rate (IAG-nucleoside hydrolase; pH 10.0): <0.02 min⁻¹

Nc1ccc(O[C@@H]2O[C@H](CO)[C@@H](O)[C@H]2O)cc1 [Example 6, p-aminophenyl β-D-ribofuranoside]
IU NH kcat (IU-nucleoside hydrolase; At pH 10, 30° C.): <0.01 s⁻¹

O=C1CCCc2c(O[C@@H]3O[C@H](CO)[C@@H](O)[C@H]3O)cccc21 [Example 5, 1-tetralone-5-yl β-D-ribofuranoside]
IU NH kcat (IU-nucleoside hydrolase; At pH 10, at 200 μM): 0.5 s⁻¹
IAG NH rate (IAG-nucleoside hydrolase; pH 8.0): <0.01 min⁻¹
IAG NH rate (IAG-nucleoside hydrolase; pH 10.0): <0.01 min⁻¹

O=C1OC(c2ccc(O)cc2)(c2ccc(O[C@@H]3O[C@H](CO)[C@@H](O)[C@H]3O)cc2)c2ccccc21 (stereo partly drawn) [Example 7, 3-(4-hydroxyphenyl)-1(3H)-isobenzofuranone-3-(phen-4-yl) β-D-ribofuranoside]
IU NH kcat (IU-nucleoside hydrolase; At pH 10, at 200 μM): 10 at sec^−1
IAG NH rate (IAG-nucleoside hydrolase; pH 8.0): <0.01 min⁻¹
IAG NH rate (IAG-nucleoside hydrolase; pH 10.0): <0.01 min⁻¹

NC(=O)c1ccc(O[C@@H]2O[C@H](CO)[C@@H](O)[C@H]2O)nc1 [Example 19, 3-carboxamido-6-pyridyl β-D-ribofuranoside]
substrate quality in words (IU-nucleoside hydrolase): good substrates
IU NH kcat (IU-nucleoside hydrolase; At pH 10, 30° C.): 141 s⁻¹
Km (IU-nucleoside hydrolase; At pH 10, 30° C.): 369 µM
substrate quality in words (IAG-nucleoside hydrolase): good substrates
IAG NH rate (IAG-nucleoside hydrolase; pH 8.0): >100 min⁻¹
IAG NH rate (IAG-nucleoside hydrolase; pH 10.0): 24 min⁻¹

OC[C@H]1O[C@@H](Oc2ccncc2)[C@H](O)[C@@H]1O [Example 12, 4-pyridyl β-D-ribofuranoside]
substrate quality in words (IU-nucleoside hydrolase): good substrates
substrate quality in words (IU-nucleoside hydrolase; listed as 4-pyridyl riboside): lower activity
substrate quality in words (IAG-nucleoside hydrolase): good substrates
substrate quality in words (IAG-nucleoside hydrolase; listed as 4-pyridyl riboside): substantially greater activity
activity per cells [1]: 210 nmoles.min^−1 per 10^8 cells
activity for the enzyme ([1]; protein by Lowry method): 31 nmoles.min^−1.(mg protein)^−1
activity for the enzyme (T. vaginalis): 4 nmoles.min^−1.(mg protein)^−1
activity per cells (T. vaginalis): 74 nmoles.min^−1 per 10^−8 cells

Cc1cc(=O)oc2cc(O[C@@H]3O[C@H](CO)[C@@H](O)[C@H]3O)ccc12 [Example 10, 4-methylcoumarin-7-yl β-D-ribofuranoside]
substrate quality in words (IU-nucleoside hydrolase): good substrates
IAG NH rate (IAG-nucleoside hydrolase; pH 10.0): 0.003 min⁻¹

nitrophenylriboside 5-phosphate
kcat/Km ratio (AMP nucleosidase; kcat/Km for the nitrophenyl substrate to that for AMP): 3 × 10^−7
Km (AMP nucleosidase; [6]): 6.25 mM
kcat (AMP nucleosidase; [6]): 0.0004 s⁻¹

OC[C@H]1O[C@@H](Oc2cccc3ccccc23)[C@H](O)[C@@H]1O [Example 2, α-naphthyl β-D-ribofuranoside]
Ki (IU-nucleoside hydrolase): 7.3 µM
IU NH kcat (IU-nucleoside hydrolase; At pH 10, at 250 μM): .009 s⁻¹
IAG NH rate (IAG-nucleoside hydrolase; pH 10.0): <0.05 min⁻¹

O=[N+]([O-])c1ccccc1O[C@@H]1O[C@H](CO)[C@@H](O)[C@H]1O [Example 9, 2-nitrophenyl β-D-ribofuranoside]
substrate quality in words (IU-nucleoside hydrolase): good substrates
IAG NH rate (IAG-nucleoside hydrolase; pH 10.0): 0.15 min⁻¹

OC[C@H]1O[C@@H](Oc2cccnc2)[C@H](O)[C@@H]1O [Example 11, 3-pyridyl β-D-ribofuranoside]
IAG NH rate (IAG-nucleoside hydrolase; pH 10.0): 0.01 min⁻¹

O=C(Nc1cccc(O[C@@H]2O[C@H](CO)[C@@H](O)[C@H]2O)c1)C(F)(F)F [Example 3, 3-trifluoroacetamidophenyl β-D-ribofuranoside]
Ki (IU-nucleoside hydrolase): 27.7 µM

OC[C@H]1O[C@@H](Oc2cccc3ncccc23)[C@H](O)[C@@H]1O [Example 14, 5-quinolyl β-D-ribofuranoside]
IAG NH rate (IAG-nucleoside hydrolase; pH 8.0): 0.16 min⁻¹
IAG NH rate (IAG-nucleoside hydrolase; pH 10.0): <0.01 min⁻¹

B1: Purine nucleoside phosphorylase (Bos taurus) (protein)
chain: MANGYTYEDYQDTAKWLLSHTEQRPQVAVICGSGLGGLVNKLTQAQTFDYSEIPNFPESTVPGHAGRLVFGILNGRACVMMQGRFHMYEGYPFWKVTFPVRVFRLLGVETLVVTNAAGGLNPNFEVGDIMLIRDHINLPGFSGENPLRGPNEERFGVRFPAMSDAYDRDMRQKAHSTWKQMGEQRELQEGTYVMLGGPNFETVAECRLLRNLGADAVGMSTVPEVIVARHCGLRVFGFSLITNKVIMDYESQGKANHEEVLEAGKQAAQKLEQFVSLLMASIPVSGHTG
notes: The E. coli and bovine spleen enzymes tested; from tissue; host or cells: bovine spleen
Km [2]: 224 µM
kcat [2]: 0.0002 s⁻¹
kcat/Km [2]: 0.89 M⁻¹ s⁻¹

B2: IAG-nucleoside hydrolase (Trypanosoma brucei brucei TREU927) (protein)
chain: T2 sequence (Q57ZL6 1-327)
Km [3]: 560 µM
kcat [3]: 0.82 s⁻¹
kcat/Km [3]: 1500 M⁻¹ s⁻¹
Km [4]: 529 µM
kcat [4]: 0.19 min⁻¹
Km [5]: 306 µM
kcat [5]: 717 min⁻¹
